Source: PubChem BioAssay AID2060890 (Molecular Pharmacology Branch, DTP, NCI, 2025)
Values belong to the compound of their own block, whether it stands above or below them.

Test system: LG0703-F948-PDC complex spheroid viability
Assay: Anticancer human tumor LG0703-F948-PDC patient-derived lung adenocarcinoma cell line growth inhibition [RAS]
Settings: for IC50: curve of first compound; for viability, T/C: stronger effect = lower value
Method in brief: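 Agents were tested in combination matrices in half-log decrements from a top concentration at or near clinical Cmax (10 microM if undetermined). Targets were multi-cell spheroids of tumour lines plus HUVEC and MSC stromal cells.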
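Note: spheroids exposed to agents for 7 days.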
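Throughout, for viability, T/C: 100% = DMSO vehicle wells.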

IC50 (second compound 0.0316 µM): > 300 nM
IC50 (second compound 0.1 µM): > 300 nM
IC50 (second compound 0.316 µM): > 300 nM
IC50 (second compound 1 µM): > 300 nM
IC50 (second compound 3.16 µM): > 300 nM
IC50 (second compound 10 µM): 3.26 nM
SMILES: CC1(C)CCC(Nc2ncc(C(F)(F)F)c(-c3c[nH]c4c(P(C)(C)=O)c(C#N)ccc34)n2)CN1 (stereo unspecified) + C#Cc1c(F)ccc2cc(O)cc(-c3ncc4c(N5CC6CCC(C5)N6)nc(OCC56CCCN5CC(F)C6)nc4c3F)c12
viability, T/C (second compound 0.0316 µM, first compound 0.000949 µM): 83.1%
viability, T/C (second compound 0.0316 µM, first compound 0.003 µM): 65.2%
viability, T/C (second compound 0.0316 µM, first compound 0.00949 µM): 61.7%
viability, T/C (second compound 0.0316 µM, first compound 0.03 µM): 55.8%
viability, T/C (second compound 0.0316 µM, first compound 0.0949 µM): 63.3%
viability, T/C (second compound 0.0316 µM, first compound 0.3 µM): 67.2%
viability, T/C (second compound 0.1 µM, first compound 0.000949 µM): 93%
viability, T/C (second compound 0.1 µM, first compound 0.003 µM): 80.7%
viability, T/C (second compound 0.1 µM, first compound 0.00949 µM): 63.9%
viability, T/C (second compound 0.1 µM, first compound 0.03 µM): 69.5%
viability, T/C (second compound 0.1 µM, first compound 0.0949 µM): 76.9%
viability, T/C (second compound 0.1 µM, first compound 0.3 µM): 66.3%
viability, T/C (second compound 0.316 µM, first compound 0.000949 µM): 85.6%
viability, T/C (second compound 0.316 µM, first compound 0.003 µM): 58.7%
viability, T/C (second compound 0.316 µM, first compound 0.00949 µM): 62.5%
viability, T/C (second compound 0.316 µM, first compound 0.03 µM): 67.5%
viability, T/C (second compound 0.316 µM, first compound 0.0949 µM): 66%
viability, T/C (second compound 0.316 µM, first compound 0.3 µM): 71.2%
viability, T/C (second compound 1 µM, first compound 0.000949 µM): 62.3%
viability, T/C (second compound 1 µM, first compound 0.003 µM): 76.4%
viability, T/C (second compound 1 µM, first compound 0.00949 µM): 62.5%
viability, T/C (second compound 1 µM, first compound 0.03 µM): 59.5%
viability, T/C (second compound 1 µM, first compound 0.0949 µM): 68.9%
viability, T/C (second compound 1 µM, first compound 0.3 µM): 66.4%
viability, T/C (second compound 3.16 µM, first compound 0.000949 µM): 65.7%
viability, T/C (second compound 3.16 µM, first compound 0.003 µM): 57.5%
viability, T/C (second compound 3.16 µM, first compound 0.00949 µM): 45.1%
viability, T/C (second compound 3.16 µM, first compound 0.03 µM): 53%
viability, T/C (second compound 3.16 µM, first compound 0.0949 µM): 63.9%
viability, T/C (second compound 3.16 µM, first compound 0.3 µM): 54.4%
viability, T/C (second compound 10 µM, first compound 0.000949 µM): 58.3%
viability, T/C (second compound 10 µM, first compound 0.003 µM): 48.9%
viability, T/C (second compound 10 µM, first compound 0.00949 µM): 37.6%
viability, T/C (second compound 10 µM, first compound 0.03 µM): 47.7%
viability, T/C (second compound 10 µM, first compound 0.0949 µM): 50.3%
viability, T/C (second compound 10 µM, first compound 0.3 µM): 44.4%

IC50 (second compound 0.000949 µM): > 1000 nM
IC50 (second compound 0.003 µM): > 1000 nM
IC50 (second compound 0.00949 µM): > 1000 nM
IC50 (second compound 0.03 µM): > 1000 nM
IC50 (second compound 0.0949 µM): > 1000 nM
IC50 (second compound 0.3 µM): < 3.16 nM
SMILES: CCN1CCN(Cc2ccc(Nc3ncc(F)c(-c4cc(F)c5nc(C)n(C(C)C)c5c4)n3)nc2)CC1 + CCn1c(-c2cccnc2C(C)OC)c2c3cc(ccc31)N1CCOC(CC(NC(=O)C(C(C)C)N(C)C(=O)C3(F)CCN(C(=O)C#CC(C)(C)N(C)C)CC3)C(=O)N3CCCC(N3)C(=O)OCC(C)(C)C2)C1
viability, T/C (second compound 0.000949 µM, first compound 0.00316 µM): 103%
viability, T/C (second compound 0.000949 µM, first compound 0.01 µM): 111%
viability, T/C (second compound 0.000949 µM, first compound 0.0316 µM): 91.9%
viability, T/C (second compound 0.000949 µM, first compound 0.1 µM): 81.8%
viability, T/C (second compound 0.000949 µM, first compound 0.316 µM): 79.4%
viability, T/C (second compound 0.000949 µM, first compound 1 µM): 80.5%
viability, T/C (second compound 0.003 µM, first compound 0.00316 µM): 101%
viability, T/C (second compound 0.003 µM, first compound 0.01 µM): 97.3%
viability, T/C (second compound 0.003 µM, first compound 0.0316 µM): 81.1%
viability, T/C (second compound 0.003 µM, first compound 0.1 µM): 104%
viability, T/C (second compound 0.003 µM, first compound 0.316 µM): 111%
viability, T/C (second compound 0.003 µM, first compound 1 µM): 76.8%
viability, T/C (second compound 0.00949 µM, first compound 0.00316 µM): 101%
viability, T/C (second compound 0.00949 µM, first compound 0.01 µM): 97.2%
viability, T/C (second compound 0.00949 µM, first compound 0.0316 µM): 93%
viability, T/C (second compound 0.00949 µM, first compound 0.1 µM): 108%
viability, T/C (second compound 0.00949 µM, first compound 0.316 µM): 82.4%
viability, T/C (second compound 0.00949 µM, first compound 1 µM): 94.8%
viability, T/C (second compound 0.03 µM, first compound 0.00316 µM): 96.9%
viability, T/C (second compound 0.03 µM, first compound 0.01 µM): 98%
viability, T/C (second compound 0.03 µM, first compound 0.0316 µM): 95.5%
viability, T/C (second compound 0.03 µM, first compound 0.1 µM): 75.4%
viability, T/C (second compound 0.03 µM, first compound 0.316 µM): 81.2%
viability, T/C (second compound 0.03 µM, first compound 1 µM): 79%
viability, T/C (second compound 0.0949 µM, first compound 0.00316 µM): 90.7%
viability, T/C (second compound 0.0949 µM, first compound 0.01 µM): 86.8%
viability, T/C (second compound 0.0949 µM, first compound 0.0316 µM): 86.3%
viability, T/C (second compound 0.0949 µM, first compound 0.1 µM): 90.1%
viability, T/C (second compound 0.0949 µM, first compound 0.316 µM): 84.8%
viability, T/C (second compound 0.0949 µM, first compound 1 µM): 74.8%
viability, T/C (second compound 0.3 µM, first compound 0.00316 µM): 54.6%
viability, T/C (second compound 0.3 µM, first compound 0.01 µM): 40%
viability, T/C (second compound 0.3 µM, first compound 0.0316 µM): 56.4%
viability, T/C (second compound 0.3 µM, first compound 0.1 µM): 54.7%
viability, T/C (second compound 0.3 µM, first compound 0.316 µM): 59.8%
viability, T/C (second compound 0.3 µM, first compound 1 µM): 54.5%

IC50 (second compound 0.0316 µM): 1150 nM
IC50 (second compound 0.1 µM): 1120 nM
IC50 (second compound 0.316 µM): 1350 nM
IC50 (second compound 1 µM): 936 nM
IC50 (second compound 3.16 µM): 456 nM
IC50 (second compound 10 µM): 35.1 nM
SMILES: CCC(CC)c1cc(NC2CCC(N)C2)n2nccc2n1 (stereo unspecified) + C#Cc1c(F)ccc2cc(O)cc(-c3ncc4c(N5CC6CCC(C5)N6)nc(OCC56CCCN5CC(F)C6)nc4c3F)c12
viability, T/C (second compound 0.0316 µM, first compound 0.0316 µM): 95%
viability, T/C (second compound 0.0316 µM, first compound 0.1 µM): 80.1%
viability, T/C (second compound 0.0316 µM, first compound 0.316 µM): 83.9%
viability, T/C (second compound 0.0316 µM, first compound 1 µM): 56.7%
viability, T/C (second compound 0.0316 µM, first compound 3.16 µM): 2.63%
viability, T/C (second compound 0.0316 µM, first compound 10 µM): 0.05%
viability, T/C (second compound 0.1 µM, first compound 0.0316 µM): 97.5%
viability, T/C (second compound 0.1 µM, first compound 0.1 µM): 80.8%
viability, T/C (second compound 0.1 µM, first compound 0.316 µM): 87.7%
viability, T/C (second compound 0.1 µM, first compound 1 µM): 55.1%
viability, T/C (second compound 0.1 µM, first compound 3.16 µM): 2.53%
viability, T/C (second compound 0.1 µM, first compound 10 µM): 0.22%
viability, T/C (second compound 0.316 µM, first compound 0.0316 µM): 81.2%
viability, T/C (second compound 0.316 µM, first compound 0.1 µM): 68%
viability, T/C (second compound 0.316 µM, first compound 0.316 µM): 73.4%
viability, T/C (second compound 0.316 µM, first compound 1 µM): 66.5%
viability, T/C (second compound 0.316 µM, first compound 3.16 µM): 3.15%
viability, T/C (second compound 0.316 µM, first compound 10 µM): 0.1%
viability, T/C (second compound 1 µM, first compound 0.0316 µM): 73.4%
viability, T/C (second compound 1 µM, first compound 0.1 µM): 69.8%
viability, T/C (second compound 1 µM, first compound 0.316 µM): 65.1%
viability, T/C (second compound 1 µM, first compound 1 µM): 49.3%
viability, T/C (second compound 1 µM, first compound 3.16 µM): 2.65%
viability, T/C (second compound 1 µM, first compound 10 µM): 0.06%
viability, T/C (second compound 3.16 µM, first compound 0.0316 µM): 64%
viability, T/C (second compound 3.16 µM, first compound 0.1 µM): 55.3%
viability, T/C (second compound 3.16 µM, first compound 0.316 µM): 56.7%
viability, T/C (second compound 3.16 µM, first compound 1 µM): 33.8%
viability, T/C (second compound 3.16 µM, first compound 3.16 µM): 1.79%
viability, T/C (second compound 3.16 µM, first compound 10 µM): 0.56%
viability, T/C (second compound 10 µM, first compound 0.0316 µM): 45%
viability, T/C (second compound 10 µM, first compound 0.1 µM): 56%
viability, T/C (second compound 10 µM, first compound 0.316 µM): 31.7%
viability, T/C (second compound 10 µM, first compound 1 µM): 19%
viability, T/C (second compound 10 µM, first compound 3.16 µM): 0.77%
viability, T/C (second compound 10 µM, first compound 10 µM): 0.53%
